Test results taken from ChEMBL document CHEMBL1201862, “PubChem BioAssay data set” (2004).
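Compound exposure: 48 hours, 5 concentrations, 96-well plates. Here, GI50 denotes the concentration required for 50% inhibition of growth.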 Calls of active or inactive are those of the source. Rule as the data show it: active = GI50 up to about 1.1 µM and inactive = higher.

Tests used:
Test in all cases: growth of human tumour cells (NCI), 48 h
MOLT-4 = tested on: MOLT-4
KM12 = tested on: KM12
A549 = tested on: A549
UACC-257 = tested on: UACC-257
CCRF-CEM = tested on: CCRF-CEM
SN12C = tested on: SN12C
SK-MEL-28 = tested on: SK-MEL-28
RPMI-8226 = tested on: RPMI-8226
SF-268 = tested on: SF-268
NCI-H460 = tested on: NCI-H460
ACHN = tested on: ACHN
RXF 393 = tested on: RXF 393
NCI-H23 = tested on: NCI-H23
HOP-62 = tested on: HOP-62
HCT-116 = tested on: HCT-116
UO-31 = tested on: UO-31
LOX IMVI = tested on: LOX IMVI
U-251 = tested on: U-251
HL-60 = tested on: HL-60
A498 = tested on: A498

Compound | GI50 (MOLT-4) | GI50 (KM12) | GI50 (A549) | GI50 (UACC-257) | GI50 (CCRF-CEM) | GI50 (SN12C) | GI50 (SK-MEL-28) | GI50 (RPMI-8226) | GI50 (SF-268) | GI50 (NCI-H460) | GI50 (ACHN) | GI50 (RXF 393) | GI50 (NCI-H23) | GI50 (HOP-62) | GI50 (HCT-116) | GI50 (UO-31) | GI50 (LOX IMVI) | GI50 (U-251) | GI50 (HL-60) | GI50 (A498)
O=c1[nH]cnc2sc(=S)c3c(c12)CCC3 | 11.7 µM (inactive) | 51.5 µM (inactive) | 68.7 µM (inactive) | 33.3 µM (inactive) | 21 µM (inactive) | > 100 µM (inactive) | 40.1 µM (inactive) | 18 µM (inactive) | > 100 µM (inactive) | 44.1 µM (inactive) | 17.3 µM (inactive) | 21.9 µM (inactive) | 23.5 µM (inactive) | 52.2 µM (inactive) | 31.3 µM (inactive) | 25.8 µM (inactive) | 24.7 µM (inactive) | > 100 µM (inactive) | 22.2 µM (inactive) | 
Cc1cc(C)c(C2=NO[C@@H]3[C@H]2C(=O)C=C2N(Cc4ccccc4)CCO[C@@]23O)c(C)c1 | > 100 µM (inactive) | > 100 µM (inactive) | > 100 µM (inactive) | > 100 µM (inactive) | > 100 µM (inactive) | > 100 µM (inactive) | > 100 µM (inactive) | > 100 µM (inactive) | > 100 µM (inactive) | > 100 µM (inactive) |  | > 100 µM (inactive) | > 100 µM (inactive) | > 100 µM (inactive) | > 100 µM (inactive) | > 100 µM (inactive) | > 100 µM (inactive) | > 100 µM (inactive) | > 100 µM (inactive) | > 100 µM (inactive)
COc1ccc(C(OCC2OC(n3cc(C)c(=O)[nH]c3=O)CC2n2cc(Cn3cc(Br)c(=O)[nH]c3=O)nn2)(c2ccccc2)c2ccccc2)cc1 (stereo not given) | 4.36 µM (inactive) | 50.9 µM (inactive) | > 100 µM (inactive) | > 100 µM (inactive) | 2.53 µM (inactive) | > 100 µM (inactive) | > 100 µM (inactive) | 5.05 µM (inactive) | > 100 µM (inactive) |  | > 100 µM (inactive) | > 100 µM (inactive) | > 100 µM (inactive) | > 100 µM (inactive) | > 100 µM (inactive) | > 100 µM (inactive) | > 100 µM (inactive) | 66.5 µM (inactive) | 2.07 µM (inactive) | > 100 µM (inactive)
O=S(O)CCCCSSCCCCS(=O)(=O)S | 2 µM (inactive) | 67.6 µM (inactive) | 40.7 µM (inactive) | 21.1 µM (inactive) | 13.8 µM (inactive) | 71 µM (inactive) | 27 µM (inactive) |  | 35.6 µM (inactive) | 64.3 µM (inactive) | 72.6 µM (inactive) | 43.3 µM (inactive) | 53.6 µM (inactive) | > 100 µM (inactive) | > 100 µM (inactive) | 51.3 µM (inactive) | 27.4 µM (inactive) | > 100 µM (inactive) |  | > 100 µM (inactive)
O=C1CSc2cc([N+](=O)[O-])ccc2N1 | > 100 µM (inactive) | > 100 µM (inactive) | > 100 µM (inactive) | > 100 µM (inactive) | > 100 µM (inactive) | > 100 µM (inactive) | > 100 µM (inactive) |  | > 100 µM (inactive) | > 100 µM (inactive) | > 100 µM (inactive) | > 100 µM (inactive) | > 100 µM (inactive) | > 100 µM (inactive) | > 100 µM (inactive) |  | > 100 µM (inactive) | > 100 µM (inactive) |  | > 100 µM (inactive)
CCOC(=O)c1cccc(NC(=O)CBr)c1 | 0.223 µM (active) | 1.79 µM (inactive) | 2.09 µM (inactive) | 1.82 µM (inactive) | 0.0618 µM (active) | 0.458 µM (active) | 2.62 µM (inactive) | 1.07 µM (active) |  | 0.927 µM (active) | 1.56 µM (inactive) | 1.72 µM (inactive) | 0.942 µM (active) | 1.73 µM (inactive) | 0.664 µM (active) | 0.776 µM (active) | 0.0904 µM (active) | 0.581 µM (active) | 1.74 µM (inactive) | 3.43 µM (inactive)
CCOCc1cc(=O)c2c(O)cc3c(c2o1)CCC(C)(C)O3 | > 100 µM (inactive) |  |  |  | > 100 µM (inactive) | > 100 µM (inactive) | > 100 µM (inactive) | > 100 µM (inactive) | > 100 µM (inactive) | > 100 µM (inactive) | > 100 µM (inactive) |  | > 100 µM (inactive) |  |  | > 100 µM (inactive) | > 100 µM (inactive) | > 100 µM (inactive) | > 100 µM (inactive) | > 100 µM (inactive)
C[C@H](C(=O)O)C(=O)NC(=O)N(Cc1ccccc1)N=O | > 100 µM (inactive) | > 100 µM (inactive) | > 100 µM (inactive) | > 100 µM (inactive) | 67.1 µM (inactive) | > 100 µM (inactive) | > 100 µM (inactive) | > 100 µM (inactive) | > 100 µM (inactive) | > 100 µM (inactive) | > 100 µM (inactive) |  |  | > 100 µM (inactive) | > 100 µM (inactive) | > 100 µM (inactive) | > 100 µM (inactive) | > 100 µM (inactive) |  | > 100 µM (inactive)
COC(=O)/C=C\n1nc(Br)c(=O)[nH]c1=O |  | > 100 µM (inactive) | > 100 µM (inactive) | > 100 µM (inactive) | > 100 µM (inactive) | > 100 µM (inactive) | > 100 µM (inactive) | > 100 µM (inactive) | > 100 µM (inactive) | > 100 µM (inactive) | > 100 µM (inactive) | 83.9 µM (inactive) | > 100 µM (inactive) | > 100 µM (inactive) |  | > 100 µM (inactive) | > 100 µM (inactive) | > 100 µM (inactive) | 66.4 µM (inactive) | > 100 µM (inactive)
CC1CC=CC(O)C1 (stereo not given) | > 100 µM (inactive) | > 100 µM (inactive) | > 100 µM (inactive) | > 100 µM (inactive) | > 100 µM (inactive) | > 100 µM (inactive) | > 100 µM (inactive) | > 100 µM (inactive) | > 100 µM (inactive) | > 100 µM (inactive) |  | > 100 µM (inactive) | > 100 µM (inactive) | > 100 µM (inactive) | > 100 µM (inactive) | > 100 µM (inactive) | > 100 µM (inactive) | > 100 µM (inactive) | > 100 µM (inactive) | > 100 µM (inactive)
CN(C(=O)C12C3C4C1C1C2C3C41C(=O)C(C)(C)C)C(C)(C)C (stereo not given) | > 100 µM (inactive) | > 100 µM (inactive) | > 100 µM (inactive) | > 100 µM (inactive) | > 100 µM (inactive) | > 100 µM (inactive) | > 100 µM (inactive) | > 100 µM (inactive) | > 100 µM (inactive) |  | > 100 µM (inactive) |  | > 100 µM (inactive) | > 100 µM (inactive) | > 100 µM (inactive) | > 100 µM (inactive) | > 100 µM (inactive) | > 100 µM (inactive) | 63.5 µM (inactive) | > 100 µM (inactive)
CN(C)CCNC(=O)c1ccc(Cl)c2ccc(-c3ccccc3)nc12 | 1.82 µM (inactive) | 4.47 µM (inactive) | 2.92 µM (inactive) | 4.04 µM (inactive) | 2.16 µM (inactive) | 3.85 µM (inactive) | 4.27 µM (inactive) | 2.51 µM (inactive) | 4.45 µM (inactive) | 2.07 µM (inactive) |  | 5.38 µM (inactive) | 5.38 µM (inactive) | 1.52 µM (inactive) | 1.88 µM (inactive) | 1.77 µM (inactive) | 2.34 µM (inactive) | 2.93 µM (inactive) | 2.58 µM (inactive) | 5.16 µM (inactive)
O=S(O)c1cc(Cl)cc(Cl)c1OCc1ccccc1 | > 100 µM (inactive) | > 100 µM (inactive) |  | > 100 µM (inactive) | > 100 µM (inactive) | > 100 µM (inactive) | > 100 µM (inactive) |  | > 100 µM (inactive) | > 100 µM (inactive) | > 100 µM (inactive) | > 100 µM (inactive) | > 100 µM (inactive) | > 100 µM (inactive) | > 100 µM (inactive) | > 100 µM (inactive) | > 100 µM (inactive) | > 100 µM (inactive) | > 100 µM (inactive) | > 100 µM (inactive)
COc1ccc2cc3[n+](cc2c1OC)CCc1cc2c(cc1-3)OCO2 [BERBERINE CHLORIDE] |  | 7.71 µM (inactive) |  |  | 13.2 µM (inactive) |  | 22.2 µM (inactive) |  | 5.2 µM (inactive) | 12.2 µM (inactive) | > 100 µM (inactive) | 68.5 µM (inactive) | 7.35 µM (inactive) |  |  |  | 77.1 µM (inactive) |  | 13.6 µM (inactive) | 95.9 µM (inactive)
O=S(O)c1cc(Cl)cc(Cl)c1O | > 100 µM (inactive) | > 100 µM (inactive) |  | > 100 µM (inactive) | > 100 µM (inactive) | > 100 µM (inactive) | > 100 µM (inactive) |  | > 100 µM (inactive) | > 100 µM (inactive) | > 100 µM (inactive) | > 100 µM (inactive) | > 100 µM (inactive) | > 100 µM (inactive) | > 100 µM (inactive) | > 100 µM (inactive) | > 100 µM (inactive) | > 100 µM (inactive) | > 100 µM (inactive) | > 100 µM (inactive)
COc1cc(S(=O)(=O)Nc2ccc(-c3csc(N4C(=O)C(C)SC4c4cccc(Oc5ccccc5)c4)n3)cc2)ccc1Cl (stereo not given) | 37.8 µM (inactive) | 34.5 µM (inactive) | > 100 µM (inactive) |  | 64.7 µM (inactive) | 70.1 µM (inactive) | 55.8 µM (inactive) | 42.1 µM (inactive) | 26.7 µM (inactive) |  | 57.8 µM (inactive) | 17.3 µM (inactive) | 33 µM (inactive) | 50.7 µM (inactive) | 34.8 µM (inactive) | 64.6 µM (inactive) | 32.4 µM (inactive) |  | 27.2 µM (inactive) | 27.4 µM (inactive)
